Assay results reported in ChEMBL document CHEMBL5154935, “Design, Synthesis, and Biological Evaluation of Novel Evodiamine Derivatives as Potential Antihepatocellular Carcinoma Agents” (J Med Chem, 2022).
Active and inactive are the calls of the source. No cut-off for these calls is given here.

Key:
[1] = system: SK-HEP1; assay: Induction of apoptosis in human SK-Hep1 cells assessed as early apoptotic cells at 80 nM incubated for 24 hrs by annexin V-FITC/PI staining flow cytometry (reference value: 0.30 %); type: functional
[2] = system: Huh-7; assay: Induction of apoptosis in human Huh-7 cells assessed as late apoptotic cells at 40 nM incubated for 24 hrs by annexin V-FITC/PI staining flow cytometry (reference value: 1.33 %); type: functional
[3] = system: SK-HEP1; assay: Inhibition of cell migration in human SK-HEP1 cells at 3 to 18 nM incubated for 24 hrs by crystal violet staining based transwell assay; type: functional; details: dose 3-18 nM
[4] = system: Huh-7; assay: Induction of apoptosis in human Huh-7 cells assessed as viable cells at 80 nM incubated for 24 hrs by annexin V-FITC/PI staining flow cytometry (reference value: 97.3 %); type: functional; details: read-out: Activity
[5] = system: Huh-7; assay: Induction of apoptosis in human Huh-7 cells assessed as late apoptotic cells at 10 nM incubated for 24 hrs by annexin V-FITC/PI staining flow cytometry (reference value: 1.33 %); type: functional
[6] = system: Huh-7; assay: Induction of apoptosis in human Huh-7 cells assessed as necrotic cells at 80 nM incubated for 24 hrs by annexin V-FITC/PI staining flow cytometry (reference value: 1.08 %); type: functional
[7] = Induction of apoptosis in rat HSC-T6 cells assessed as early apoptotic cells at 10 nM pretreated with TGFbeta-1 for 1 day followed by compound addition and measured after 24 hrs by flow cytometry (reference value: 0.17 %); type: functional
[8] = system: Huh-7; assay: Induction of cell cycle arrest in human Huh-7 cells assessed as accumulation at G1 phase at 80 nM treated for 24 hrs by PI staining based flow cytometry (reference value: 60.77 %); type: functional
[9] = Induction of apoptosis in rat HSC-T6 cells assessed as early apoptotic cells at 40 nM pretreated with TGFbeta-1 for 1 day followed by compound addition and measured after 24 hrs by flow cytometry (reference value: 0.17 %); type: functional
[10] = Induction of apoptosis in rat HSC-T6 cells assessed as necrotic cells at 40 nM pretreated with TGFbeta-1 for 1 day followed by compound addition and measured after 24 hrs by flow cytometry (reference value: 0.56 %); type: functional
[11] = system: SK-HEP1; assay: Induction of cell cycle arrest in human SK-Hep1 cells assessed as accumulation at G1 phase at 10 nM treated for 24 hrs by PI staining based flow cytometry (reference value: 58.47 %); type: functional
[12] = system: Huh-7; assay: Induction of cell cycle arrest in human Huh-7 cells assessed as accumulation at S phase at 40 nM treated for 24 hrs by PI staining based flow cytometry (reference value: 23.33 %); type: functional
[13] = system: SK-HEP1; assay: Induction of apoptosis in human SK-Hep1 cells assessed as viable cells at 80 nM incubated for 24 hrs by annexin V-FITC/PI staining flow cytometry (reference value: 97.8 %); type: functional; details: read-out: Activity
[14] = system: SK-HEP1; assay: Induction of cell cycle arrest in human SK-Hep1 cells assessed as accumulation at G2 phase at 40 nM treated for 24 hrs by PI staining based flow cytometry (reference value: 16.55 %); type: functional
[15] = system: SK-HEP1; assay: Antiproliferative activity against human SK-Hep1 cells assessed as inhibition of cell viability by MTT assay; type: functional, cell-based; details: time 24-72 hrs, TDE = time-dependent effect
[16] = system: SK-HEP1; assay: Induction of mitochondrial membrane potential changes in human SK-Hep1 cells assessed as decrease in TMRE positive cells incubated for 24 hrs by TMRE staining based flow cytometry; type: functional, cell-based; details: dose 10-80 nM, DDE = dose-dependent effect
[17] = Induction of apoptosis in rat HSC-T6 cells assessed as viable cells at 80 nM pretreated with TGFbeta-1 for 1 day followed by compound addition and measured after 24 hrs by flow cytometry (reference value: 97.5 %); type: functional; details: read-out: Activity
[18] = system: Huh-7; assay: Inhibition of cell invasion in human Huh-7 cells at 3 to 18 nM incubated for 24 hrs by matrigel based assay; type: functional; details: dose 3-18 nM
[19] = system: Huh-7; assay: Induction of cell cycle arrest in human Huh-7 cells assessed as accumulation at G2 phase at 40 nM treated for 24 hrs by PI staining based flow cytometry (reference value: 15.90 %); type: functional
[20] = system: SK-HEP1; assay: Induction of apoptosis in human SK-Hep1 cells assessed as late apoptotic cells at 40 nM incubated for 24 hrs by annexin V-FITC/PI staining flow cytometry (reference value: 1.13 %); type: functional
[21] = system: SK-HEP1; assay: Induction of apoptosis in human SK-Hep1 cells assessed as early apoptotic cells at 10 nM incubated for 24 hrs by annexin V-FITC/PI staining flow cytometry (reference value: 0.30 %); type: functional
[22] = system: SK-HEP1; assay: Induction of apoptosis in human SK-Hep1 cells assessed as cytoskeleton disintegration incubated for 24 hrs by Giemsa staining based microscopy; type: functional, cell-based; details: dose 12-60 nM, DDE = dose-dependent effect
[23] = Antiproliferative activity against human L02 cells treated for 72 hrs by MTT assay; type: toxicity, cell-based
[24] = system: SK-HEP1; assay: Induction of cell cycle arrest in human SK-Hep1 cells assessed as accumulation at G2 phase at 10 nM treated for 24 hrs by PI staining based flow cytometry (reference value: 16.55 %); type: functional
[25] = system: Huh-7; assay: Induction of apoptosis in human Huh-7 cells assessed as early apoptotic cells at 40 nM incubated for 24 hrs by annexin V-FITC/PI staining flow cytometry (reference value: 0.33 %); type: functional
[26] = system: Huh-7; assay: Induction of apoptosis in human Huh-7 cells assessed as chromatin agglutination incubated for 24 hrs by Giemsa staining based microscopy; type: functional, cell-based; details: dose 12-60 nM, DDE = dose-dependent effect
[27] = system: SK-HEP1; assay: Induction of apoptosis in human SK-Hep1 cells assessed as necrotic cells at 40 nM incubated for 24 hrs by annexin V-FITC/PI staining flow cytometry (reference value: 0.73 %); type: functional

SMILES	Activity [1]	Activity [2]	inhibition [3]	viability at 0.08 µM [4]	Activity [5]	Activity [6]	Activity [7]	Activity [8]	Activity [9]	Activity [10]	Activity [11]	Activity [12]	viability at 0.08 µM [13]	Activity [14]	Activity [15]	Activity [16]	viability at 0.08 µM [17]	inhibition [18]	Activity [19]	Activity [20]	further results
O=C1c2cc(F)cc(F)c2N(c2cccc(F)c2)C2c3[nH]c4ccc(O)cc4c3CCN12 (centres undefined)	0.75%	13.5%	Active	58.4%	4.61%	9.82%	0.084%	10.64%	0.14%	1.11%	54.93%	21.24%	73.4%	74.07%	Tde	Dde	83.8%	Active	63.75%	13.6%	Activity [21]: 0.91%; Activity [22]: Dde; IC50 at 72 h [23]: 780 nM; Activity [24]: 26.65%; Activity [25]: 2.51%; Activity [26]: Dde; Activity [27]: 2.92%
CC(=O)Oc1ccc2[nH]c3c(c2c1)CCN1C(=O)c2cc(F)cc(F)c2N(c2cccc(F)c2)C31 (centres undefined)	13.5%	25.6%	Active	59.7%	4.02%	9.88%	0.52%	17.18%	0.32%	1.29%	62.52%	21.48%	84%	70.47%	Tde	Dde	41.7%	Active	50.27%	13.4%	Activity [21]: 5.25%; Activity [22]: Dde; IC50 at 72 h [23]: 950 nM; Activity [24]: 18.08%; Activity [25]: 1.37%; Activity [26]: Dde; Activity [27]: 2.44%
